Tests used:
[1] = molecular target: MDR1 (ABCB1, P-glycoprotein) (Homo sapiens, UniProt P08183); assay: Substrate activity at human MDR1 expressed in MDCK-II cells assessed as apparent permeability across apical to basolateral membrane at 10 uM by LC-MS/MS analysis; type: ADME, cell-based
[2] = Metabolic stability in human liver microsomes assessed as parent compound remaining incubated for 60 mins in presence of NADPH by LC-MS/MS analysis; type: ADME, Microsome; settings: read-out: Stabilty
[3] = Metabolic stability in rat liver microsomes assessed as parent compound remaining incubated for 60 mins in presence of NADPH by LC-MS/MS analysis; settings: read-out: Stabilty
[4] = Inhibition of ALK2 R206H in mouse C2C12 cells assessed as reduction in BMP-induced ALP activity using p-nitrophenyl phosphate as substrate
[5] = molecular target: hERG (KCNH2) (Homo sapiens, UniProt Q12809); assay: Inhibition of human ERG at 10 uM by automated patch method relative to control
Sequence of hERG (KCNH2) (Q12809 whole entry): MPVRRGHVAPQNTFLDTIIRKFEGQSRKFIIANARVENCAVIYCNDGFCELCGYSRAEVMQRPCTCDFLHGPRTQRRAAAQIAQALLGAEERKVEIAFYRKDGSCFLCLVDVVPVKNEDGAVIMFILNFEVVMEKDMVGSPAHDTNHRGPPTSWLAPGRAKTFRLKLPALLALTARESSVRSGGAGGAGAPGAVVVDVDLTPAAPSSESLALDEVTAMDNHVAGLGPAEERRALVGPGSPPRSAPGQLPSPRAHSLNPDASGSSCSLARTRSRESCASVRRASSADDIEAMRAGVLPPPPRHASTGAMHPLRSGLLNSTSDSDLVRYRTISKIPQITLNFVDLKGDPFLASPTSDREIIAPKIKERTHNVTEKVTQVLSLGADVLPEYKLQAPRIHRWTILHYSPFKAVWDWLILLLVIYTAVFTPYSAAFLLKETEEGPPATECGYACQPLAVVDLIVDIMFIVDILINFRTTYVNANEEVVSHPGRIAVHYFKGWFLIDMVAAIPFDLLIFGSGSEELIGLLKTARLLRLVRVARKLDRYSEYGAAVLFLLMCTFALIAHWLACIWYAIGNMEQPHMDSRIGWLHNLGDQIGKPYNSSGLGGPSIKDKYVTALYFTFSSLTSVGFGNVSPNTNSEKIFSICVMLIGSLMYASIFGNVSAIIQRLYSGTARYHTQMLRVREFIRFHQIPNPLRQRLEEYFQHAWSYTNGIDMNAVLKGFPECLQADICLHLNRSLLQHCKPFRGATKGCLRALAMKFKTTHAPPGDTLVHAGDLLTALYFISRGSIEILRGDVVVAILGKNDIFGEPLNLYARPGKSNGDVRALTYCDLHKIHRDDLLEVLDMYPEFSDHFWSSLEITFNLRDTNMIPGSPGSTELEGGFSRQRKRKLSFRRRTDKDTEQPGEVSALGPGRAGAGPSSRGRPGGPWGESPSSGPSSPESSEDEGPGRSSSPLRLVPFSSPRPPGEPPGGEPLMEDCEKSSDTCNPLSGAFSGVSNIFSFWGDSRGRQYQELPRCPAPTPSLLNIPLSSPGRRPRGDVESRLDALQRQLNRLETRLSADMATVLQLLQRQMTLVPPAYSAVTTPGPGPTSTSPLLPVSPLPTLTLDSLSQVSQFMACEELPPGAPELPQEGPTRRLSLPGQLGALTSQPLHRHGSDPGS

Sequence of MDR1 (ABCB1, P-glycoprotein) (P08183 whole entry): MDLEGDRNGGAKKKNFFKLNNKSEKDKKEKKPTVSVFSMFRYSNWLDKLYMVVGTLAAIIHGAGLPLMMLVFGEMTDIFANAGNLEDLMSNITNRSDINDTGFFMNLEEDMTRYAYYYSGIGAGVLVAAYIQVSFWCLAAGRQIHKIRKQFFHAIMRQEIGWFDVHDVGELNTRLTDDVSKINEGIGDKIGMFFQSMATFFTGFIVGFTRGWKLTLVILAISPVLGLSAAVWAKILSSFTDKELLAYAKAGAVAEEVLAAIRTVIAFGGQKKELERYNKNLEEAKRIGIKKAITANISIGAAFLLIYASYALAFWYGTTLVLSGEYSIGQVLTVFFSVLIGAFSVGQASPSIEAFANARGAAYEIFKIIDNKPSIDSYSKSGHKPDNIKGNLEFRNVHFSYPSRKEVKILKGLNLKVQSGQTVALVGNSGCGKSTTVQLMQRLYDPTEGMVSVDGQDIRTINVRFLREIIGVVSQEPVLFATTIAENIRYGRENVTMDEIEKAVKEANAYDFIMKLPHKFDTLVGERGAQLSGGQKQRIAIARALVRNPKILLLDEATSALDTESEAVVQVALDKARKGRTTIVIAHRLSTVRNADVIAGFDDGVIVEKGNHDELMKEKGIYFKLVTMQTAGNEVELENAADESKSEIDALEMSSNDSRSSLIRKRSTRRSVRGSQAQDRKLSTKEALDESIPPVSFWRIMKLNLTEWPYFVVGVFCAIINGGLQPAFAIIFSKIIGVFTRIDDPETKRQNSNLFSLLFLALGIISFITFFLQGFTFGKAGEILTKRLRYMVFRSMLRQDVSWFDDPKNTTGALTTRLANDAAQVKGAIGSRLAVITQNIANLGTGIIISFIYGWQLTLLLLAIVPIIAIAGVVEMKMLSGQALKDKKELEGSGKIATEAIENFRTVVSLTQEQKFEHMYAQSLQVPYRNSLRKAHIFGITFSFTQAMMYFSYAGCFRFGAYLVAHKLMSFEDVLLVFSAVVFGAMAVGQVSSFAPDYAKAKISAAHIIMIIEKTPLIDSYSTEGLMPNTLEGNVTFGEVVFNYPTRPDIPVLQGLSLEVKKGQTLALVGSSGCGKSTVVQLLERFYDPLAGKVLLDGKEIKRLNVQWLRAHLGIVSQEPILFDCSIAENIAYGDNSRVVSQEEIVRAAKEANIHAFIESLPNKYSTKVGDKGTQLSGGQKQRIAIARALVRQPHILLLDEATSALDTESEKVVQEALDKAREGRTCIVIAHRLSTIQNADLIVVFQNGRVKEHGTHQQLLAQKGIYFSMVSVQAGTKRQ

| Structure (SMILES) | Papp A→B at 10 µM [1] [×10⁻⁶ cm/s] | remaining at 1 h [2] [%] | remaining at 1 h [3] [%] | IC50 [4] [nM] | inhibition at 10 µM [5] [%] |
| --- | --- | --- | --- | --- | --- |
| CN1CCN(c2ccc(Nc3nccc(-c4c(-c5cccnc5)nn5c4COCC5)n3)cc2)CC1 | 4.37 | – | – | – | – |
| COCCN1CCN(c2ccc(Nc3nccc(-c4c(-c5cccnc5)nn5c4COCC5)n3)cc2)CC1 | 8.69 | 56 | 40.5 | 37.3 | 3.6 |
| COc1ccc(Nc2nccc(-c3c[nH]nc3-c3cccnc3)n2)cc1 | – | 14.8 | 2.1 | > 100 | – |
| c1cncc(-c2nn3c(c2-c2ccnc(Nc4ccc(N5CCNCC5)cc4)n2)COCC3)c1 | 0.906 | – | – | – | – |

From ChEMBL document CHEMBL4706694, “Novel bicyclic pyrazoles as potent ALK2 (R206H) inhibitors for the treatment of fibrodysplasia ossificans progressiva” (Bioorg Med Chem Lett, 2021)
